Experimental data from article PMC11637875, “Discovery of novel PARP1/NRP1 dual-targeting inhibitors with strong antitumor potency” (Frontiers in Pharmacology, 2024).

Columns and labels:
AKT2 = AKT2 (Homo sapiens, UniProt P31751); assay: Selectivity profile (123 kinase panel); format: biochemical
ALK6 = ALK6 (Homo sapiens, UniProt O00238); assay: Selectivity profile (123 kinase panel); format: biochemical
AurC = AurC (Homo sapiens, UniProt Q9UQB9); assay: Selectivity profile (123 kinase panel); format: biochemical
AXL = AXL (Homo sapiens, UniProt P30530); assay: Selectivity profile (123 kinase panel); format: biochemical
BRAF = BRAF (Homo sapiens, UniProt P15056); assay: Selectivity profile (123 kinase panel); format: biochemical
BRK = BRK (Homo sapiens, UniProt Q13882); assay: Selectivity profile (123 kinase panel); format: biochemical
CRAF = CRAF (Homo sapiens, UniProt P04049, Y340D/Y341D); assay: Selectivity profile (123 kinase panel); format: biochemical
CSK = CSK (Homo sapiens, UniProt P41240); assay: Selectivity profile (123 kinase panel); format: biochemical
CK1γ1 = CK1γ1 (Homo sapiens, UniProt Q9HCP0); assay: Selectivity profile (123 kinase panel); format: biochemical
CK1γ3 = CK1γ3 (Homo sapiens, UniProt Q9Y6M4); assay: Selectivity profile (123 kinase panel); format: biochemical
DNA-PK = DNA-PK (Homo sapiens, UniProt P78527); assay: Selectivity profile (123 kinase panel); format: biochemical
DYRK3 = DYRK3 (Homo sapiens, UniProt O43781); assay: Selectivity profile (123 kinase panel); format: biochemical
Sequence of DYRK3 (O43781 whole entry): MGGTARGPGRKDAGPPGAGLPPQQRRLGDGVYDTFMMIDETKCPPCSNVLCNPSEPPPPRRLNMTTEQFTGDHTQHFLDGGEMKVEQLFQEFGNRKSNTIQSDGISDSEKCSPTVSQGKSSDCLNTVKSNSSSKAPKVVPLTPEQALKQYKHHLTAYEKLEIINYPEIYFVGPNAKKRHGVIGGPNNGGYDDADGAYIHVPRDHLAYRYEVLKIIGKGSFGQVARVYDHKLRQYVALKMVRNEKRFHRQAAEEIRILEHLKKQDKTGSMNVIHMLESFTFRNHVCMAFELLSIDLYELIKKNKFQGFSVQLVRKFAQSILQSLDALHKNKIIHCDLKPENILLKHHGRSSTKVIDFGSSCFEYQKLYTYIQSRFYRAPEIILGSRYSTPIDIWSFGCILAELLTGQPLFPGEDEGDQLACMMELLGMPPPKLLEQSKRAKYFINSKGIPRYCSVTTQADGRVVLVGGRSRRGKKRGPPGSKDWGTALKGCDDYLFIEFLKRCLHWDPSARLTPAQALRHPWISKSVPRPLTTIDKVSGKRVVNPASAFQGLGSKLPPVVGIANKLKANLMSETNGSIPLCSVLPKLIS

EPHA2 = EPHA2 (Homo sapiens, UniProt P29317); assay: Selectivity profile (123 kinase panel); format: biochemical
Sequence of EPHA2 (P29317 24-976, species assumed): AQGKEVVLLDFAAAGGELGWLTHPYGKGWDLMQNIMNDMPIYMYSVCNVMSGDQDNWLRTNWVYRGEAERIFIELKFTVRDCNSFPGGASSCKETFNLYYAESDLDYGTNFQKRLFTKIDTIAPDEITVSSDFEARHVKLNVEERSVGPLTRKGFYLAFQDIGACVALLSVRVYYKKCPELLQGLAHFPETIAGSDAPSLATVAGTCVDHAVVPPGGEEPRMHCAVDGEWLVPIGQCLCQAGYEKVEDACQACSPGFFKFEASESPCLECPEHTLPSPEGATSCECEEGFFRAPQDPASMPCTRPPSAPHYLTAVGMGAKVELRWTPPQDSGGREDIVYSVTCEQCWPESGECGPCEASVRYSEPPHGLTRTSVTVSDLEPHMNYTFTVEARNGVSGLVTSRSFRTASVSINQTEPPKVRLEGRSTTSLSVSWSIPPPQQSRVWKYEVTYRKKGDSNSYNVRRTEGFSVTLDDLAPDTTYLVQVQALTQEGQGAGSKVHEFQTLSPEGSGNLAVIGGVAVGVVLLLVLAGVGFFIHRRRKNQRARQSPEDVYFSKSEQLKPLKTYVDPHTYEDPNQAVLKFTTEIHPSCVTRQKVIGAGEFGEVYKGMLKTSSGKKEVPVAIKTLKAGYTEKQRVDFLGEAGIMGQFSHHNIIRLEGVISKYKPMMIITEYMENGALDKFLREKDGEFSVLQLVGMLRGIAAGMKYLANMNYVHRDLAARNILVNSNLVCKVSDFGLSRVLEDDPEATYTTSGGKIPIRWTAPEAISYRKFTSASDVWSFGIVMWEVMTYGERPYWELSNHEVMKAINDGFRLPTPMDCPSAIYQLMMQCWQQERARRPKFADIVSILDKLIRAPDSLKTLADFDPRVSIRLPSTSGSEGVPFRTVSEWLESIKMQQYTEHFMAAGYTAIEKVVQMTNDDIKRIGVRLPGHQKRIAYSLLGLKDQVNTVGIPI

EPHA4 = EPHA4 (Homo sapiens, UniProt P54764); assay: Selectivity profile (123 kinase panel); format: biochemical
EPHB2 = EPHB2 (Homo sapiens, UniProt P29323); assay: Selectivity profile (123 kinase panel); format: biochemical
EPHB4 = EPHB4 (Homo sapiens, UniProt P54760); assay: Selectivity profile (123 kinase panel); format: biochemical
Erk1 = Erk1 (Homo sapiens, UniProt P27361); assay: Selectivity profile (123 kinase panel); format: biochemical
FAK = FAK (Homo sapiens, UniProt Q05397); assay: Selectivity profile (123 kinase panel); format: biochemical
FLT1 = FLT1 (Homo sapiens, UniProt P17948); assay: Selectivity profile (123 kinase panel); format: biochemical
IGF1R = IGF1R (Homo sapiens, UniProt P08069); assay: Selectivity profile (123 kinase panel); format: biochemical
JAK2 = JAK2 (Homo sapiens, UniProt O60674); assay: Selectivity profile (123 kinase panel); format: biochemical
Sequence of JAK2 (O60674 whole entry): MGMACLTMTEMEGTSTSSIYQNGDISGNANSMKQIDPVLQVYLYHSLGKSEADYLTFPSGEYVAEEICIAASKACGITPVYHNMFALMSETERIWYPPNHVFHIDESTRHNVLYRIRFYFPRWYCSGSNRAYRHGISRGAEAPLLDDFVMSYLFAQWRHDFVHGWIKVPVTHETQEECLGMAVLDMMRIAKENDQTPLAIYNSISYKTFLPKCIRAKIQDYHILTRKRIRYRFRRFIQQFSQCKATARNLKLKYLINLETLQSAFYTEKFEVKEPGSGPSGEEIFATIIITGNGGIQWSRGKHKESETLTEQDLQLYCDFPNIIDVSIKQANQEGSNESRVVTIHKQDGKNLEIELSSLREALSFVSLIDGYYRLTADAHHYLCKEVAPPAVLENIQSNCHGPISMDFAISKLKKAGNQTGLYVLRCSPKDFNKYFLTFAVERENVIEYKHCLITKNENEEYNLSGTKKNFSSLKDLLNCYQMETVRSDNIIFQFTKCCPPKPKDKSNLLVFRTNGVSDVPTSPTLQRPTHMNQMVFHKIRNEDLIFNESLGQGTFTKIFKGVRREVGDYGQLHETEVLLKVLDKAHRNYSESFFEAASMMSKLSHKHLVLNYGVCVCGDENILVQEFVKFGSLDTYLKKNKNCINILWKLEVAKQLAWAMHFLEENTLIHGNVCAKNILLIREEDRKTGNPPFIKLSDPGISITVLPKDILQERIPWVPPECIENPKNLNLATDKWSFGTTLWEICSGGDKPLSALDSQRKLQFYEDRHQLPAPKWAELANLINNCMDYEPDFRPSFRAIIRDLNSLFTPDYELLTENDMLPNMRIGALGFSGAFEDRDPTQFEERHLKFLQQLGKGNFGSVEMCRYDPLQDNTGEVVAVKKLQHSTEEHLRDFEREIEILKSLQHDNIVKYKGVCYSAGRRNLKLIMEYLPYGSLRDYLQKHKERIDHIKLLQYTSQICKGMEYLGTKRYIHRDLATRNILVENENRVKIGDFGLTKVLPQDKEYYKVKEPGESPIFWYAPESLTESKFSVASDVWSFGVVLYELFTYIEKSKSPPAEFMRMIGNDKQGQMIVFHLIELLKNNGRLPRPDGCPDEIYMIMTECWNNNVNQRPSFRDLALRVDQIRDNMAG

MARK3 = MARK3 (Homo sapiens, UniProt P27448); assay: Selectivity profile (123 kinase panel); format: biochemical
MARK4 = MARK4 (Homo sapiens, UniProt Q96L34); assay: Selectivity profile (123 kinase panel); format: biochemical
MER = MER (Homo sapiens, UniProt Q12866); assay: Selectivity profile (123 kinase panel); format: biochemical
MINK = MINK (Homo sapiens, UniProt Q8N4C8); assay: Selectivity profile (123 kinase panel); format: biochemical
Sequence of MINK (Q8N4C8 whole entry): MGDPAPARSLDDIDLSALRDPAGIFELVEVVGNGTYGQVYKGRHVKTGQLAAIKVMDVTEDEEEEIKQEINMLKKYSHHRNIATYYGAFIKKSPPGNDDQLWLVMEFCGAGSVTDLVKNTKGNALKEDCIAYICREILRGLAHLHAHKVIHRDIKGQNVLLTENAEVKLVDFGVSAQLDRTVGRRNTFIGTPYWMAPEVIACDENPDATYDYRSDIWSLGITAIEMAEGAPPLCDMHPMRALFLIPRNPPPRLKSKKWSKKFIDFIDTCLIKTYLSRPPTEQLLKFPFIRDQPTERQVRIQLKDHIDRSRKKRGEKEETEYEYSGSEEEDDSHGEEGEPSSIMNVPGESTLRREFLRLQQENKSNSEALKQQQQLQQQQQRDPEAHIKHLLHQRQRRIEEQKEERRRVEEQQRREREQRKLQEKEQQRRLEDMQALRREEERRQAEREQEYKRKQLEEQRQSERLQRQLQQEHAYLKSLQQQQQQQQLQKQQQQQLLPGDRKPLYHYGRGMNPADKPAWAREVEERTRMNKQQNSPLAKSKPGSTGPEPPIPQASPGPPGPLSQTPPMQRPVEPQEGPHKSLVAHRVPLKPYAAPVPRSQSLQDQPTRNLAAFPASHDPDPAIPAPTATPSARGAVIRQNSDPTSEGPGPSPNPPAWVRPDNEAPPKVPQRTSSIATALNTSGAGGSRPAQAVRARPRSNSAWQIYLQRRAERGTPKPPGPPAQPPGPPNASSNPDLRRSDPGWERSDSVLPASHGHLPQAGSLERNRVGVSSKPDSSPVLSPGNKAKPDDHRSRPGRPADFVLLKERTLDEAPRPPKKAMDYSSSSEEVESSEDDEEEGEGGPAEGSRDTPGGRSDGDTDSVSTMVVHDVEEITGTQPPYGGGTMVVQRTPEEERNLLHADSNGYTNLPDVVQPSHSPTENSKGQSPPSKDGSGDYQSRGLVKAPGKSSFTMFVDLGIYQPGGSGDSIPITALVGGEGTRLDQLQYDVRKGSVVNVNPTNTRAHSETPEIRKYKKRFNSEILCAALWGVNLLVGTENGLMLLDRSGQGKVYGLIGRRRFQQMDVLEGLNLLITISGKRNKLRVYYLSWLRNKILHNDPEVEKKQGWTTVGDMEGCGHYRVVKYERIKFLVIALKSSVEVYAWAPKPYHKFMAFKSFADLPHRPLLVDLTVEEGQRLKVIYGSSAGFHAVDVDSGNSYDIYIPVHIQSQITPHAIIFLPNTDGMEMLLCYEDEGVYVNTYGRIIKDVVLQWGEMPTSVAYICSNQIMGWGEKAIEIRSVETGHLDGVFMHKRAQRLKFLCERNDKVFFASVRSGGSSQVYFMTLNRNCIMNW

MRCKα = MRCKα (Homo sapiens, UniProt Q5VT25); assay: Selectivity profile (123 kinase panel); format: biochemical
NEK9 = NEK9 (Homo sapiens, UniProt Q8TD19); assay: Selectivity profile (123 kinase panel); format: biochemical
PARP8 = PARP8 (Homo sapiens, UniProt Q8N3A8); assay: Selectivity profile (other isoforms of PARP and NRP family); format: biochemical
PARP12 = PARP12 (Homo sapiens, UniProt Q9H0J9); assay: as above; format: biochemical
NRP2 = NRP2 (Homo sapiens, UniProt O60462); assay: as above; format: biochemical
HUVECs = assay: Tube formation analysis; format: cell-based, human
Experimental: 50 μL of thawed Matrigel (#356234, BD Biosciences, United States) was added to a 96-well plate and incubated at 37°C for 30 min. After Matrigel gelation, HUVECs (1 × 10^5 cells/mL) were seeded into the basement membrane matrix. Each well was filled with 100 μL of cell suspension. […] Finally, five randomly selected fields per well were photographed with an inverted light microscope. The results were analyzed by ImageJ software to measure and record the number of branch points and tube length for each field. The specific steps are to download the “angiogenesis analyzer” plugin and click on ImageJ, Plugings, Macros, Install, angiogenesis analyzer in sequence. At least three parallel replicates were performed for each condition. The relative number of tubes formation was analyzed using GraphPad Prism 9 software.

[1] = In vivo pharmacokinetic studies; set-up: species or system SD rats; settings: Sprague-Dawley (SD), rat, plasma, po, 10 mg/kg
Experimental: Blood samples (0.25 mL) were collected at 0.25, 0.5, 1, 2, 4, 8, 16, and 24 h after administration and centrifuged to obtain the plasma fraction. In a 96-well plate, the plasma sample (50 μL) was transferred, and the internal standard methanol/acetonitrile (1:1, v/v) solution (200 μL) was added. After vortexing for 5 min, the mixture was centrifuged (12,000 rpm, 5 min) and the supernatant was obtained (60.0 μL). Liquid chromatography and tandem mass spectrometry (LC-MS/MS) system was used to study pharmacokinetics. The data were processed by Phoenix.

Sequence of ALK6 (O00238 14-502): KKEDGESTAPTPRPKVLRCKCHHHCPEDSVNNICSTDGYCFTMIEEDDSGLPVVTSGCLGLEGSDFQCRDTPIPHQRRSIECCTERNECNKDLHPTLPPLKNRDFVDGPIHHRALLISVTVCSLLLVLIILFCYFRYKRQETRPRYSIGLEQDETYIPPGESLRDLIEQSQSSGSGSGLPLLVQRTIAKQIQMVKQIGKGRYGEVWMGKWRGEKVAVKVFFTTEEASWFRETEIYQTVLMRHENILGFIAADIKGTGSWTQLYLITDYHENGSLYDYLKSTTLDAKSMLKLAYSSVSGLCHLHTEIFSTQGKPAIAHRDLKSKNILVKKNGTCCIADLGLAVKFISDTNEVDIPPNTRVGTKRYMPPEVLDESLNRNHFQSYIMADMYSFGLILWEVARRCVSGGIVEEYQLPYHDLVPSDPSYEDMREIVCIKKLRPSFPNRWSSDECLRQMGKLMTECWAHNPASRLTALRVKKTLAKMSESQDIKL
Sequence of AKT2 (P31751 whole entry): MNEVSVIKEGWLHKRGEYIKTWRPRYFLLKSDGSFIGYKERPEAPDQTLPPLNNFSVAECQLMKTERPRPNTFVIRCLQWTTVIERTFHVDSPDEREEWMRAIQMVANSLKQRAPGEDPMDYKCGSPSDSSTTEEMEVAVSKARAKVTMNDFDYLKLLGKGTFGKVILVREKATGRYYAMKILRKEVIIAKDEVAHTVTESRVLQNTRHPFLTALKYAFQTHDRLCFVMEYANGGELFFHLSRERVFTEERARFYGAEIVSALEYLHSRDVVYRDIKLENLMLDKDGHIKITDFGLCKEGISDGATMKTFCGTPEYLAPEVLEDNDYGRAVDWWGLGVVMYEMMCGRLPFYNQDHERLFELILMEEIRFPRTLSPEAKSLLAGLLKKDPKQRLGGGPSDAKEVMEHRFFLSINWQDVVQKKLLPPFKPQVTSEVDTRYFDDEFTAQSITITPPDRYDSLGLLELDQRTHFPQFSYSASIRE

## NC(N)=NCCC[C@H](NCN1CCN(C(=O)c2cc(Cc3n[nH]c(=O)c4ccccc34)ccc2F)CC1)C(=O)O [PPNR-4]
AKT2
  IC50: > 10 µM
ALK6
  IC50: > 10 µM
AurC
  IC50: > 10 µM
AXL
  IC50: > 10 µM
BRAF
  IC50: > 10 µM
BRK
  IC50: > 10 µM
CRAF
  IC50: > 10 µM
CSK
  IC50: > 10 µM
CK1γ1
  IC50: > 10 µM
CK1γ3
  IC50: > 10 µM
DNA-PK
  IC50: > 10 µM
DYRK3
  IC50: > 10 µM
EPHA2
  IC50: > 10 µM
EPHA4
  IC50: > 10 µM
EPHB2
  IC50: > 10 µM
EPHB4
  IC50: > 10 µM
Erk1
  IC50: > 10 µM
FAK
  IC50: > 10 µM
FLT1
  IC50: > 10 µM
IGF1R
  IC50: > 10 µM
JAK2
  IC50: > 10 µM
MARK3
  IC50: > 10 µM
MARK4
  IC50: > 10 µM
MER
  IC50: > 10 µM
MINK
  IC50: > 10 µM
MRCKα
  IC50: > 10 µM
NEK9
  IC50: > 10 µM
PARP8
  IC50: > 10 µM
PARP12
  IC50: > 10 µM
NRP2
  IC50: > 10 µM
HUVECs; 2, 6, and 18 μM, compared with the control group
  tube formation: significantly interfered with tube formation in a dose-dependent manner
HUVECs; Homo sapiens, HUVEC, 8 h, 6 μM, 8 h, single replicates, read-out: Relative number of tube formations (% of control)
  activity at 6 µM: 6%
HUVECs; Homo sapiens, HUVEC, 8 h, 18 μM, 8 h, single replicates, read-out: Relative number of tube formations (% of control)
  activity at 18 µM: 0%
[1]
  bioavailability: 66.5%
[1]; SD rats, p.o
  AUC: 8020 ng·h/mL
  Cmax: 812 ng/mL
  half-life: 2.71 h
